US20200138827A1, “SMALL MOLECULE MODULATORS OF HUMAN STING” (Curadev Pharma Limited, priority 2017, published 2020)
Read-outs that look alike come from different tables or passages of the source.

Key:
[1] = biological target: T1, hSTING(HAQ) (Homo sapiens, UniProt Q86WV6, G230A/H232R/R293Q/R71H); assay: Luciferase reporter assay in HEK293T-hSTING-Luciferase cells, HAQ polymorph; assay type: cell-based; details: 20 hr stimulation, read-out: HAQ activity (EC50 range)
T1 construct: host or cells: HEK293T
T1 sequence (Q86WV6 whole entry R71H/G230A/H232R/R293Q): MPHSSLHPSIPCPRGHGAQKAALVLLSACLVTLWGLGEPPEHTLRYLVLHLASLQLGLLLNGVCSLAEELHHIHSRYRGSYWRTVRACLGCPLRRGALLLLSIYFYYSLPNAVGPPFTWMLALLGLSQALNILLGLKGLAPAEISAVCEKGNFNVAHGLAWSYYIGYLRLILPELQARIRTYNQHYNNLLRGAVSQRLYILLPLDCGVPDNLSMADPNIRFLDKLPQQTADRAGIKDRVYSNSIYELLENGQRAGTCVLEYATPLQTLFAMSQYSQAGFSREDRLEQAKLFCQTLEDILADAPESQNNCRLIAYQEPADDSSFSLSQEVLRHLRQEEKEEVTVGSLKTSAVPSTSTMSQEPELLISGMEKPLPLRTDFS
Source text: (§1) • a) Stable STING expressing cells—Stable HEK293T STING-expressing cell lines were generated using plasmids purchased from Invivogen, Calif., USA, that contain STING cDNA cloned into the pUNO-1 vector under hEF1-HTLV promoter and containing the Blasticidin selection cassette. The plasmids hSTING(R232), hSTING(H232), hSTING(HAQ) were directly procured from Invivogen while hSTING (AQ) and hSTING (Q) were derived from hSTING(HAQ) and hSTING (R232) plasmids respectively by using a PCR based site directed mutagenesis method. These vectors were individually transfected into HEK293T cells using Lipofectamine (Invitrogen) and transfected cells were selected under Blasticidin selection. These transfected cells were further subjected to clonal selection using the limiting dilution method to obtain clonally pure populations of HEK cells transfected with each of the above mentioned human STING variants. Only those clones were selected in which ligand independent activation of STING was minimal. • b) Stable Luciferase reporter gene expressing cells—Stable HEK293T Luciferase reporter gene expressing cell lines were generated using pCDNA4 plasmids under an IRF-inducible promoter. This promoter is comprised of five tandem interferon-stimulated response elements (ISRE) fused to an ISG54 minimal promoter. This vector was transfected into HEK293T cells using Lipofectamine (Invitrogen) and transfected cells were selected under Zeocin selection. These transfected cells were further subjected to clonal selection using the limiting dilution method to obtain clonally pure populations of HEK cells transfected the Luciferase reporter construct. Only those clones were selected in which ligand independent induction of luciferase was minimal.
(§2) 5×10^5 clonally selected HEK293T-hSTING-Luciferase cells were seeded in 384-well plates in growth medium and stimulated with novel compounds. After 20 hr of stimulation supernatant were removed and secretary reporter gene activity were measured using the Quanti-Luc detection system (Invivogen) on a Spectramax i3X luminometer.
(§3) The 5 major polymorphisms of human STING are shown in FIG. 1, with their prevalence in human populations indicated.

[2] = biological target: T2, WT/R232 STING protein (Homo sapiens, UniProt Q86WV6, H232R); assay: Luciferase reporter assay in HEK293T-hSTING-Luciferase cells, WT/R232; assay type: cell-based; details: 20 hr stimulation, read-out: R232 Activity (EC50 range)
T2 construct: host or cells: HEK293T
T2 sequence (Q86WV6 whole entry H232R): as the sequence (Q86WV6 whole entry R71H/G230A/H232R/R293Q) above, with H71R, A230G, Q293R counted along it
How it was run: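 Clonal HEK293T cells stably expressing human STING R232 plus an ISRE/ISG54-driven luciferase reporter, 5×10^5 per well, stimulated with compounds for 20 h. Secreted luciferase in supernatant measured by luminescence; […].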

[3] = tested on: IRF pathway; assay: Reporter gene expression assay in THP1-Dual cells, IRF axis (secreted Lucia luciferase); assay type: cell-based, human; details: read-out: THP-IRF activity (EC50 range)
Description: (§4) THP1-Dual™ cells (Invivogen) were derived from the human THP-1 monocyte cell line by stable integration of two inducible reporter constructs. As a result, THP1-Dual™ cells allow the simultaneous study of the NF-κB pathway, by monitoring the activity of secreted SEAP, and the IRF pathway, by assessing the activity of a secreted luciferase (Lucia). […] THP1-Dual™ cells were seeded in 384-well plates in growth medium and stimulated with novel compounds. After […] of stimulation supernatant were removed and reporter proteins were readily measured in the cell culture supernatant using QUANTI-Blue™ (Invivogen), a SEAP detection reagent, and QUANTI-Luc™ (Invivogen), a luciferase detection reagent on a Spectramax i3X luminometer.

[4] = biological target: T3, hSTING(H232) (Homo sapiens, UniProt Q86WV6); assay: Luciferase reporter assay in HEK293T-hSTING-Luciferase cells, H232 polymorph; assay type: cell-based; details: 20 hr stimulation, read-out: H232 activity (EC50 range)
T3 construct: host or cells: HEK293T
T3 sequence (Q86WV6 whole entry): as the sequence (Q86WV6 whole entry R71H/G230A/H232R/R293Q) above, with H71R, A230G, R232H, Q293R counted along it
Source text: as §1, §2, §3

[5] = tested on: NF-κB pathway; assay: Reporter gene expression assay in THP1-Dual cells, NFkB axis (secreted SEAP); assay type: cell-based, human; details: read-out: THP-NFKB activity (EC50 range)
Description: as §4

| Compound | EC50 [1] | EC50 [2] | EC50 ([3]; Homo sapiens, THP1-Dual) | EC50 [4] | EC50 ([5]; Homo sapiens, THP1-Dual) | EC50 [3] | EC50 [5] |
| --- | --- | --- | --- | --- | --- | --- | --- |
| O=C(NCc1cc2ccccc2o1)c1cnc2c(c1)N(Cc1c(F)cccc1Cl)C(=O)CS2 [Example 197, N-(benzofuran-2-ylmethyl)-1-(2-chloro-6-fluorobenzyl)-2-oxo-2,3-dihydro-1H-pyrido[2,3-b][1,4]thiazine-7-carboxamide] | 1 to 10 µM | 1 to 10 µM | > 10 µM | 1 to 10 µM | > 10 µM | – | – |
| O=C(NCc1c(F)cc(F)cc1F)c1ccc2c(c1)N(Cc1c(F)cccc1Cl)C(=O)CC2 [Example 270, 1-(2-chloro-6-fluorobenzyl)-2-oxo-N-(2,4,6-trifluorobenzyl)-1,2,3,4-tetrahydroquinoline-7-carboxamide] | 1 to 10 µM | < 1 µM | > 10 µM | < 1 µM | 1 to 10 µM | – | – |
| O=C(NCc1c(F)cc(F)cc1F)c1cnc2c(c1)N(Cc1c(F)cccc1Cl)C(=O)CS2 [Example 178, 1-(2-chloro-6-fluorobenzyl)-2-oxo-N-(2,4,6-trifluorobenzyl)-2,3-dihydro-1H-pyrido[2,3-b-1,4]thiazine-7-carboxamide] | > 10 µM | < 1 µM | > 10 µM | > 10 µM | > 10 µM | – | – |
| O=C(NCc1cc2ccccc2o1)c1ccc2c(c1)N(Cc1ccccc1)C(=O)CS2 [Example 69, N-(benzofuran-2-ylmethyl)-4-benzyl-3-oxo-3,4-dihydro-2H-benzo[b-1,4]thiazine-6-carboxamide] | 1 to 10 µM | 1 to 10 µM | > 10 µM | 1 to 10 µM | > 10 µM | – | – |
| Cc1ccc(CNC(=O)c2cnc3c(c2)N(Cc2c(F)cccc2Cl)C(=O)C(C)S3)o1 (stereo not shown) [Example 195, 1-(2-chloro-6-fluorobenzyl)-3-methyl-N-((5-methylfuran-2-yl)methyl)-2-oxo-2,3-dihydro-1H-pyrido[2,3-b][1,4]thiazine-7-carboxamide] | 1 to 10 µM | < 1 µM | > 10 µM | 1 to 10 µM | 1 to 10 µM | – | – |
| CC1(CO)Sc2ccc(C(=O)NCc3ccc(F)cc3F)cc2N(Cc2c(F)cccc2Cl)C1=O (stereo not shown) [Example 151, 4-(2-chloro-6-fluorobenzyl)-N-(2,4-difluorobenzyl)-2-(hydroxymethyl)-2-methyl-3-oxo-3,4-dihydro-2H-benzo[b][1,4] thiazine-6-carboxamide] | 1 to 10 µM | < 1 µM | 1 to 10 µM | 1 to 10 µM | 1 to 10 µM | – | – |
| CC1Sc2ccc(C(=O)NCc3c(F)cc(F)cc3F)cc2N(Cc2ccccc2F)C1=O (stereo not shown) [Example 142, 4-(2-fluorobenzyl)-2-methyl-3-oxo-N-(2,4,6-trifluorobenzyl)-3,4-dihydro-2H-benzo[b-1,4]thiazine-6-carboxamide] | < 1 µM | – | – | < 1 µM | – | 1 to 10 µM | – |
| CC1Sc2ccc(C(=O)NCc3c(F)cc(F)cc3F)cc2N(Cc2cc(F)cc(F)c2)C1=O (stereo not shown) [Example 148, 4-(3,5-difluorobenzyl)-2-methyl-3-oxo-N-(2,4,6-trifluorobenzyl)-3,4-dihydro-2H-benzo[b][1,4] thiazine-6-carboxamide] | < 1 µM | < 1 µM | – | < 1 µM | – | 1 to 10 µM | < 1 µM |
| O=C(NCc1ccc(F)cc1F)c1ccc2c(n1)N(Cc1cc(F)cc(F)c1)C(=O)CC2 [Example 279, N-(2,4-difluorobenzyl)-8-(3,5-difluorobenzyl)-7-oxo-5,6,7,8-tetrahydro-1,8-naphthyridine-2-carboxamide] | > 10 µM | 1 to 10 µM | > 10 µM | > 10 µM | > 10 µM | – | – |
| C[C@@H]1Oc2ccc(C(=O)NCc3cc4ccccc4o3)cc2N(Cc2cc(F)cc(F)c2)C1=O [Example 235, (S)-N-(benzofuran-2-ylmethyl)-4-(3,5-difluorobenzyl)-2-methyl-3-oxo-3,4-dihydro-2H-benzo[b-1,4]oxazine-6-carboxamide] | 1 to 10 µM | < 1 µM | 1 to 10 µM | 1 to 10 µM | 1 to 10 µM | – | – |
| O=C(NCc1cc2ccccc2o1)c1ccc2c(n1)N(Cc1cc(F)cc(F)c1)C(=O)CS2 [Example 183, N-(benzofuran-2-ylmethyl)-4-(3,5-difluorobenzyl)-3-oxo-3,4-dihydro-2H-pyrido[3,2-b-1,4]thiazine-6-carboxamide] | 1 to 10 µM | 1 to 10 µM | > 10 µM | 1 to 10 µM | 1 to 10 µM | – | – |
| CC1Sc2ncc(C(=O)NCc3cc4ccccc4o3)cc2N(Cc2c(F)cccc2Cl)C1=O (stereo not shown) [Example 199, N-(benzofuran-2-ylmethyl)-1-(2-chloro-6-fluorobenzyl)-3-methyl-2-oxo-2,3-dihydro-1H-pyrido[2,3-b][1,4]thiazine-7-carboxamide] | < 1 µM | < 1 µM | 1 to 10 µM | < 1 µM | 1 to 10 µM | – | – |
| CC1(C)Sc2ccc(C(=O)NCc3c(F)cc(F)cc3F)cc2N(Cc2ccccc2F)C1=O [Example 218, 4-(2-fluorobenzyl)-2,2-dimethyl-3-oxo-N-(2,4,6-trifluorobenzyl)-3,4-dihydro-2H-benzo[b][1,4] thiazine-6-carboxamide] | 1 to 10 µM | < 1 µM | 1 to 10 µM | 1 to 10 µM | 1 to 10 µM | – | – |
| CC1Sc2ncc(C(=O)NCc3c(F)cc(F)cc3F)cc2N(Cc2cc(F)cc(F)c2)C1=O (stereo not shown) [Example 192, 1-(3,5-difluorobenzyl)-3-methyl-2-oxo-N-(2,4,6-trifluorobenzyl)-2,3-dihydro-1H-pyrido[2,3-b][1,4]thiazine-7-carboxamide] | < 1 µM | < 1 µM | 1 to 10 µM | < 1 µM | 1 to 10 µM | – | – |
| O=C(NCc1c(F)cc(F)cc1F)c1ccc2c(c1)N(C(=O)c1c(F)cccc1Cl)CCS2 [Example 258, 4-(2-chloro-6-fluorobenzoyl)-N-(2,4,6-trifluorobenzyl)-3,4-dihydro-2H-benzo[b][1,4]thiazine-6-carboxamide] | > 10 µM | 1 to 10 µM | > 10 µM | > 10 µM | > 10 µM | – | – |
| CC1Oc2ccc(C(=O)NCc3c(F)cc(F)cc3F)cc2N(Cc2cc(F)cc(F)c2)C1=O (stereo not shown) [Example 232, 2-Methyl-4-(3,5-difluorobenzvyl)-3-oxo-N-(2,4,6-trifluorobenzyl)-3,4-dihydro-2H-1,4-benzoxazine-6-carboxamide] | 1 to 10 µM | < 1 µM | > 10 µM | 1 to 10 µM | > 10 µM | – | – |
| O=C(NCc1c(F)cc(F)cc1F)c1cnc2c(c1)N(Cc1cc(F)cc(F)c1)C(=O)CS2 [Example 200, 1-(3,5-difluorobenzyl)-2-oxo-N-(2,4,6-trifluorobenzyl)-2,3-dihydro-1H-pyrido[2,3-b] [1,4]thiazine-7-carboxamide] | 1 to 10 µM | < 1 µM | > 10 µM | 1 to 10 µM | > 10 µM | – | – |
| O=C(NCc1ccco1)c1ccc2c(c1)N(Cc1ccc(F)cc1)C(=O)CS2 [Example 120, 4-(4-fluorobenzyl)-N-(furan-2-ylmethyl)-3-oxo-3,4-dihydro-2H-benzo[b-1,4]thiazine-6-carboxamide] | > 10 µM | 1 to 10 µM | > 10 µM | 1 to 10 µM | > 10 µM | – | – |
